Results: article PMC7827406, “Structure–Activity Relationship (SAR) Study of Spautin-1 to Entail the Discovery of Novel NEK4 Inhibitors” (International Journal of Molecular Sciences, 2021)
Like-named read-outs stand apart in the source and are kept apart here.

Columns and labels:
Assay in all cases: biochemical
Set-up in all cases: Eurofins KinaseProfiler full panel at Km ATP, residual kinase activity (%) relative to DMSO
AAK1(h) = AAK1(h) (Homo sapiens, UniProt Q2M2I8)
In short: (§1)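 Radiometric kinase activity assays were run with ATP at Km and compounds at 10 µM, and remaining activity (%) was reported. A separate competitive binding screen measured DNA-tagged kinase displaced from immobilized active-site ligands by qPCR, giving percent kinase still bound at 10 µM compound in DMSO.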

CLK3(h) = CLK3(h) (Homo sapiens, UniProt P49761)
In short: as §1

FGFR2(h) = FGFR2(h) (Homo sapiens, UniProt P21802)
In short: as §1

NEK1(h) = molecular target: T1, NEK1(h) (Homo sapiens, UniProt Q96PY6)
T1 sequence (Q96PY6 1-1258): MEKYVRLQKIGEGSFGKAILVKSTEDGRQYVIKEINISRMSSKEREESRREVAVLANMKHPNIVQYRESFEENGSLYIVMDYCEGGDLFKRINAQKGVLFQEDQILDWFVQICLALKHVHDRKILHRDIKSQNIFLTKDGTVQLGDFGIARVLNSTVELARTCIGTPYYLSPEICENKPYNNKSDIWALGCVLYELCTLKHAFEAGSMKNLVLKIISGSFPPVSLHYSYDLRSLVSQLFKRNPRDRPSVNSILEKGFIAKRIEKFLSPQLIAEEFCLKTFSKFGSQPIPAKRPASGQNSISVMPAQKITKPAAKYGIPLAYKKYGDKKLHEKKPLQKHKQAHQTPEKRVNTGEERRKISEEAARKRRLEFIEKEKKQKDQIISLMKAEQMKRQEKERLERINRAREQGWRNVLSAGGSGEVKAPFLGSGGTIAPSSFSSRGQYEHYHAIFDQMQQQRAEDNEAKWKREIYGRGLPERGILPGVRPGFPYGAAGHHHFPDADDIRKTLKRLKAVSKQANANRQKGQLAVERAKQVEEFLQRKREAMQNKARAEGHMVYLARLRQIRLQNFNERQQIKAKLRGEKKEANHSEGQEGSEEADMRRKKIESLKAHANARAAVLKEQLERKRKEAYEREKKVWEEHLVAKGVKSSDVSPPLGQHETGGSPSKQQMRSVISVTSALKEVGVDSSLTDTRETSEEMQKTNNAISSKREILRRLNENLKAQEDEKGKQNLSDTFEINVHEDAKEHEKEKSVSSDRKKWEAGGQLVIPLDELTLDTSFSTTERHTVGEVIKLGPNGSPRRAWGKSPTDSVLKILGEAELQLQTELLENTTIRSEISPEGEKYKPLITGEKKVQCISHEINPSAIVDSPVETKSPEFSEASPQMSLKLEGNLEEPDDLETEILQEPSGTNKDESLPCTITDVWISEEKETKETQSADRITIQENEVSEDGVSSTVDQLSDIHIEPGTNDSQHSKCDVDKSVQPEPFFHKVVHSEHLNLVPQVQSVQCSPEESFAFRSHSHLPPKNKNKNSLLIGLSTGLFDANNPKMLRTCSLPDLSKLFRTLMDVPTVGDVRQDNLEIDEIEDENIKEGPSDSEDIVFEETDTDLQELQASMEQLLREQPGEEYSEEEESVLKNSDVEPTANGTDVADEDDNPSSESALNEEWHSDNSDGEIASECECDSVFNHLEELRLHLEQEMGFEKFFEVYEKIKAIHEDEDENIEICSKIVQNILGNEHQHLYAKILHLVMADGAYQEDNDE
In short: as §1

PTK5(h) = molecular target: T2, PTK5(h) (Homo sapiens, UniProt P42685)
T2 construct: gene FRK
In short: as §1

Mnk2(h) = molecular target: T3, Mnk2(h) (Homo sapiens, UniProt Q9HBH9)
T3 construct: gene MKNK2
In short: as §1

HIPK4(h) = molecular target: T4, HIPK4(h) (Homo sapiens, UniProt Q8NE63)
T4 sequence (Q8NE63 1-616): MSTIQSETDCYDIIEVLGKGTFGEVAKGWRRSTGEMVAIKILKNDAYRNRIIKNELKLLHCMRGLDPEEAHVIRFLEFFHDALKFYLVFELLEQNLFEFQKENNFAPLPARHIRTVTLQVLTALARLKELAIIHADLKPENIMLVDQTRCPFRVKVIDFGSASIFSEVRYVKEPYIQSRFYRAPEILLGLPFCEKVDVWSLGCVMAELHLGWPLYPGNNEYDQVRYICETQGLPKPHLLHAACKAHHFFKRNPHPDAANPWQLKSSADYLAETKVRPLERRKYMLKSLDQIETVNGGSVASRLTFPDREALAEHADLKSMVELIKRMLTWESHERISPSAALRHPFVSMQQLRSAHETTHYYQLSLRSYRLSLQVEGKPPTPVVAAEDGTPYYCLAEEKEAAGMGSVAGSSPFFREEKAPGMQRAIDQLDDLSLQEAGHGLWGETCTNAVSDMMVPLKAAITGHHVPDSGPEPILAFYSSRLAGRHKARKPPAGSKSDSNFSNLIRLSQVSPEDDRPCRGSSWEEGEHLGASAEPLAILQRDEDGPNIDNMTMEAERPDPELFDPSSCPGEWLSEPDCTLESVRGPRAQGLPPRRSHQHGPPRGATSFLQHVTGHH
In short: as §1

[1] = read-out: Residual activity (%) 5at
[2] = read-out: Residual activity (%) 5as
[3] = read-out: Residual activity (%) 5ay
[4] = read-out: Residual activity (%) Spautin-1 5aa

CLK3(h), sequence (P49761 whole entry): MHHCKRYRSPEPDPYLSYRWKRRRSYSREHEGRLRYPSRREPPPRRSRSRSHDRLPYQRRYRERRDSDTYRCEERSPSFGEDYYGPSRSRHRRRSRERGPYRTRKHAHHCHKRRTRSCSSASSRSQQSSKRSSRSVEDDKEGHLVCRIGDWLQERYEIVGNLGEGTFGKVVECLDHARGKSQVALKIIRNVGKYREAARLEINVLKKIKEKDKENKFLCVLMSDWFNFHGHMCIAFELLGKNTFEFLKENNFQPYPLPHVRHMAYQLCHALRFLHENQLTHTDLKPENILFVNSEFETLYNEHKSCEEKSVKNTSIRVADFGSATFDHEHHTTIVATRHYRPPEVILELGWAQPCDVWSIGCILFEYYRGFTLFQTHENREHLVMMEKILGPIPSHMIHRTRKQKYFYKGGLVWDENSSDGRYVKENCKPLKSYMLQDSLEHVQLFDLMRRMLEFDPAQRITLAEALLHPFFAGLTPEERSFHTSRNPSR
T2 sequence (P42685 whole entry): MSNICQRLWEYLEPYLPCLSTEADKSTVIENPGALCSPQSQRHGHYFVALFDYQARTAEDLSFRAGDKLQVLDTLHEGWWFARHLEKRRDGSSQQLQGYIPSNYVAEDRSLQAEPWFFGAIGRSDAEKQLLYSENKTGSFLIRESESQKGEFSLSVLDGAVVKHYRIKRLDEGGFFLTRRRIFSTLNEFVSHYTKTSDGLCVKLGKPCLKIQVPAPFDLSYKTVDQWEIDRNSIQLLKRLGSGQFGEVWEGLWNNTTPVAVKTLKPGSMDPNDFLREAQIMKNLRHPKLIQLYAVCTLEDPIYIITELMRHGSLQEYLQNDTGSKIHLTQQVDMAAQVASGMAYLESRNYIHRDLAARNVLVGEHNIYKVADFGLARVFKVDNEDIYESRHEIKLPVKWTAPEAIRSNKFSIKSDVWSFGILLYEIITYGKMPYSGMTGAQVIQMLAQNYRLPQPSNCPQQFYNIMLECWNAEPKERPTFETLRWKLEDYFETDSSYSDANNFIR
AAK1(h), sequence (Q2M2I8 whole entry): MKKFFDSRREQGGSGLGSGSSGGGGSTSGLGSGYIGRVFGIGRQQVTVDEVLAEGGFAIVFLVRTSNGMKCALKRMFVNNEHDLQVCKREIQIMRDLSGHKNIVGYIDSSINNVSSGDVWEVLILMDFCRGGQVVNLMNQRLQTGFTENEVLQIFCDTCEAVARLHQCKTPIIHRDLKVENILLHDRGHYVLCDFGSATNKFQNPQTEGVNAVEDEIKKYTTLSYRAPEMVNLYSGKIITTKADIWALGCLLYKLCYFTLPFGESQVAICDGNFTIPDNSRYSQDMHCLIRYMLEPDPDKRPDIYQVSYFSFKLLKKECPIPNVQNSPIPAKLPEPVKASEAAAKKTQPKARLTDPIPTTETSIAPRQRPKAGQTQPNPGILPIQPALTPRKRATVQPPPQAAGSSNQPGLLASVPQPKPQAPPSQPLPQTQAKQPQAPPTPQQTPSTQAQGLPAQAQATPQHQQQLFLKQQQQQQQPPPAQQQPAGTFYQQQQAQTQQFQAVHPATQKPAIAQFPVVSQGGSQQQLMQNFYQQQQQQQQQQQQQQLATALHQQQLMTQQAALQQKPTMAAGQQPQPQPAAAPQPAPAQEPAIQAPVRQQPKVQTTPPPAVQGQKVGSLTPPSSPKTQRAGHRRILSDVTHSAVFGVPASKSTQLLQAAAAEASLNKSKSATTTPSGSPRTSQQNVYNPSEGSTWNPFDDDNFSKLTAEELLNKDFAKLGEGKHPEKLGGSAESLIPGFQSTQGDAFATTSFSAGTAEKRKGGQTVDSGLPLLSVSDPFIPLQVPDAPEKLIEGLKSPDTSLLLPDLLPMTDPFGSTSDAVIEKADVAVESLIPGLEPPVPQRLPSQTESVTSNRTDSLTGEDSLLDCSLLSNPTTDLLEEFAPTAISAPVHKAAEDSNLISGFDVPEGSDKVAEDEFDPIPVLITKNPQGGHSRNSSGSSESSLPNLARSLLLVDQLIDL
T3 sequence (Q9HBH9 whole entry): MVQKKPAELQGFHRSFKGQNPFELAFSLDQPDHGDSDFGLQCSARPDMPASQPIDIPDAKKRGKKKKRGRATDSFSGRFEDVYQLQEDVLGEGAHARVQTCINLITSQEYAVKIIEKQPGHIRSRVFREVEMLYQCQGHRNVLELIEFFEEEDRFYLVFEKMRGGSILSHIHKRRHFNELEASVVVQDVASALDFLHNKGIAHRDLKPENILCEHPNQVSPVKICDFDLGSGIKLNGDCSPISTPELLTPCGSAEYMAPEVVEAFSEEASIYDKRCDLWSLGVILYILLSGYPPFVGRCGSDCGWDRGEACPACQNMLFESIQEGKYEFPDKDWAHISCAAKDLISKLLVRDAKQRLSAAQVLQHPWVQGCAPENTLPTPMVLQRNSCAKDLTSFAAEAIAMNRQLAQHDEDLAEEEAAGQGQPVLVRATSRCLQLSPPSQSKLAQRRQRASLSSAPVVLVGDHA
FGFR2(h), sequence (P21802 whole entry): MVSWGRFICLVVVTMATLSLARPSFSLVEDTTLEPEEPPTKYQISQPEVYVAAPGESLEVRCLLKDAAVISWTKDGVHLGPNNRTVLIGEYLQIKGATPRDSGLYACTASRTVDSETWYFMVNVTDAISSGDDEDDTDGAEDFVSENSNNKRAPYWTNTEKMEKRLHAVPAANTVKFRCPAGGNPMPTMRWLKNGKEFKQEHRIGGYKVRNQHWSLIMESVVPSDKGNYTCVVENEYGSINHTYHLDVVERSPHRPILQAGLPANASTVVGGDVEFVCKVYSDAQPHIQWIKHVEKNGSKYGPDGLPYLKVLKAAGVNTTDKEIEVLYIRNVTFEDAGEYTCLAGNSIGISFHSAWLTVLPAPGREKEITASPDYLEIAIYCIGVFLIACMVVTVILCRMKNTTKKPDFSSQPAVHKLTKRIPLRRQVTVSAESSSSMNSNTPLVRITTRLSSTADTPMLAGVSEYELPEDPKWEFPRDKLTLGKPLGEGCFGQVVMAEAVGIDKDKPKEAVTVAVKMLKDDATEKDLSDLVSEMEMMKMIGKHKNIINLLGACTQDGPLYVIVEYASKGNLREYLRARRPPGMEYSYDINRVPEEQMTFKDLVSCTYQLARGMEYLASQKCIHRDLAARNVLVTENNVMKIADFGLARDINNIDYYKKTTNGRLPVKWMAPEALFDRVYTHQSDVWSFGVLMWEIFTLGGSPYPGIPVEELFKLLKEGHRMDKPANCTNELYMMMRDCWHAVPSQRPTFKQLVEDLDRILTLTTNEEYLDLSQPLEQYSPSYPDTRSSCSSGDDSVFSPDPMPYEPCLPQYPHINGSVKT

Fc1ccc2ncnc(NCCc3ccc(Cl)cc3)c2c1 [5at, N-[2-(4-Chlorophenyl)Ethyl]-6-Fluoro-4-Quinazolinamine]
remaining activity at 10 µM (AAK1(h); [1]): 72% | remaining activity at 10 µM (CLK3(h); [1]): 116% | remaining activity at 10 µM (FGFR2(h); [1]): 84% | remaining activity at 10 µM (NEK1(h); [1]): 70% | remaining activity at 10 µM (PTK5(h); [1]): 95% | remaining activity at 10 µM (Mnk2(h); [1]): 80% | remaining activity at 10 µM (HIPK4(h); [1]): 93%

Fc1ccc(CCNc2ncnc3ccc(F)cc23)cc1 [5as, 6-Fluoro-N-[2-(4-Fluorophenyl)Ethyl]-4-Quinazolinamine]
remaining activity at 10 µM (AAK1(h); [2]): 81% | remaining activity at 10 µM (CLK3(h); [2]): 117% | remaining activity at 10 µM (FGFR2(h); [2]): 99% | remaining activity at 10 µM (NEK1(h); [2]): 97% | remaining activity at 10 µM (PTK5(h); [2]): 84% | remaining activity at 10 µM (Mnk2(h); [2]): 83% | remaining activity at 10 µM (HIPK4(h); [2]): 92%

COc1ccc2ncnc(Nc3cccc(F)c3)c2c1 [5ay, N-(3-Fluorophenyl)-6-Methoxy-4-Quinazolinamine]
remaining activity at 10 µM (AAK1(h); [3]): 53% | remaining activity at 10 µM (CLK3(h); [3]): 114% | remaining activity at 10 µM (FGFR2(h); [3]): 96% | remaining activity at 10 µM (NEK1(h); [3]): 60% | remaining activity at 10 µM (PTK5(h); [3]): 64% | remaining activity at 10 µM (Mnk2(h); [3]): 19% | remaining activity at 10 µM (HIPK4(h); [3]): 42%

Fc1ccc(CNc2ncnc3ccc(F)cc23)cc1 [5aa, 6-Fluoro-N-(4-fluorobenzyl)-4-Quinazolinamine]
remaining activity at 10 µM (AAK1(h); [4]): 95% | remaining activity at 10 µM (CLK3(h); [4]): 88% | remaining activity at 10 µM (FGFR2(h); [4]): 91% | remaining activity at 10 µM (NEK1(h); [4]): 81% | remaining activity at 10 µM (PTK5(h); [4]): 85% | remaining activity at 10 µM (Mnk2(h); [4]): 93% | remaining activity at 10 µM (HIPK4(h); [4]): 103%
